Data reported in patent publication US6042841A, “Cosmetic method of treating skin” (Unilever Home & Personal Care USA Division of Conopco, Inc., priority 1998, dated 2000).

Assays:
Format in all cases: cell-based
keratinocytes = assay: Keratinocyte viability by neutral red up-take in PGE2 assay; conditions: at the concentrations tested
Procedure: After incubating for 24 hours the medium was removed and the viability determined by the Neutral Red method.
The cells were then tested for viability by the neutral red up-take method described in example 2 above.

[1] = tested on: B16-F1 mouse melanoma cells; assay: Pigmentation assay (melanin in media)
Procedure: B16-F1 mouse melanoma cells (American Type Culture Collection, Maryland, USA) were maintained in 75 cm^2 culture flasks in RPMI 1640 medium (ICN-Flow, cat. no. 12-60-54) supplemented with L-glutamine (4 mM) and 10% foetal bovine serum (FBS) at 37° C. in a water saturated, 5% CO2 in air atmosphere. Cells were passaged twice weekly.
Subconfluent B16 cells were seeded in 96 well microtiter plates at a density of 5000 cells/well and cultured overnight in DMEM (Life Technologies, NY) containing 10% foetal bovine serum and 1% penicillin/streptomycin without phenol red at 37° C. under 5% CO2. After 24 hours, the media was replaced with fresh media containing the test materials or vehicle controls. Cells were incubated for 72 hours at which time melanin was visible in the control wells. Next, the melanin containing media from each well was transferred to a clean 96 well plate and quantified by reading the absorbance at 530 nm using a microplate spectrophotometer (Dynatech MR5000) and correcting for the baseline absorption of fresh medium. As the corrected absorption is proportional to the melanin concentration the percentage pigmentation for a skin lightening test substance can be calculated as: […]
where OD530 test and OD530 ref indicate the average corrected absorption of the medium from the wells with the test substance and that of the medium from the wells without the test substance. The percentage inhibition caused by the test substance is then 100 - % pigmentation.

PGE2 = assay: Prostaglandin E2 assay, PMA-induced PGE2 production in human skin fibroblasts; conditions: for PGE2: N 4, p < 0.001 vs PMA-treated
Procedure: Intracellular adhesion molecules (ICAM) and PEG2 production by human skin fibroblasts can be induced by the inflammatory stimulus PMA (phorbal myristate acetate). PMA represents an external stressor which induces oxidative stress and inflammatory responses in cells. This model is used to model inflammation in vivo.
Primary human foreskin fibroblasts at passage 2 (P2) were seeded into 96-well plates at 10000 cells/well and maintained for 24 hours in an atmosphere of 5% carbon dioxide in Dulbeccos Modified Eagles Medium (DMEM) supplemented with 10% foetal calf serum. […] Phorbal myristate acetate (PMA) (Sigma) was added to the media and the cells incubated for a further 24 hours. […] The fibroblasts/media were then analysed as described below immediately or snap frozen in liquid nitrogen and stored at -70° C. for future analysis. The cells were then counted and data from the dot-blot analysis subsequently standardised to cell number.
Prostaglandin E2 (PGE2) assay: Volumes of 50 μl culture medium were taken for PGE2 assay after gently shaking the culture plate. PGE2 levels in the medium were determined with a Biotrak PGE2 immunoassay kit (Amersham, UK). The assay is based on the competition between unlabelled PGE2 in the sample and a fixed quantity of horseradish peroxidase labelled PGE2 for a limited amount of fixed PGE2 specific antibody. Concentrations of unlabelled sample PGE2 are determined according to a standard curve which was obtained at the same time.

procollagen-I = assay: Dot blot assay for procollagen-I synthesis in human dermal fibroblasts
Procedure: Primary human foreskin fibroblasts at passage 2 (P2) were seeded into 12-well plates at 10000 cells/cm^2 and maintained for 24 hours in an atmosphere of 5% carbon dioxide and 4% oxygen in Dulbeccos Modified Eagles Medium (DMEM) supplemented with 10% foetal calf serum. After this time the cells were washed with serum free DMEM and then incubated in fresh serum free DMEM for a further 60 hours. The fibroblast monolayers were then washed again with serum free DMEM. Test reagents and vehicle controls were added to the cells in triplicate in a final volume of 0.4 ml/well fresh serum free DMEM and incubated for a further 24 hours. This fibroblast conditioned medium was either analysed immediately or snap frozen in liquid nitrogen and stored at -70° C. for future analysis. The cells were then counted and data from the dot-blot analysis subsequently standardised to cell number.
Samples of conditioned medium from dermal fibroblasts treated with vehicle (as a control) or test reagents were supplemented with 20 mM dithiothreitol (1:10 dilution of 200 mM stock solution) and 0.1% sodium dodecylsulphate (1:100 dilution of 10% stock solution), mixed well and then incubated at 75° C. for 2 minutes. […]
In order to normalise the results the effects of the test substance was determined relative to a vehicle treated control value of 100 arbitrary units. […]

CCCCCCCCCCC/C=C\CCCCC(=O)O [Petroselinic Acid, petroselinic acid]
Cell viability of keratinocytes (in words) (keratinocytes): not found to be adversely effected
melanin production (in words) [1]: inhibits melanin production
activity at 0.01 % ([1]; Mus musculus, B16-F1, 0.01%, 72 hours, n = 4, ** (0.000)): 79.5%
activity at 0.013 % ([1]; Mus musculus, B16-F1, 0.013%, 72 hours, n = 4, ** (0.000)): 40.4%
activity at 0.02 % ([1]; Mus musculus, B16-F1, 0.02%, 72 hours, n = 4, ** (0.000)): 55.3%
activity at 0.04 % ([1]; Mus musculus, B16-F1, 0.04%, 72 hours, n = 4, ** (0.000)): 3.9%
activity at 0.1 % ([1]; Mus musculus, B16-F1, 0.1%, 72 hours, n = 4, ** (0.000)): 19.3%
PGE2 (PGE2; PMA + PA (0.1 uM)): 500 ± 127 pg/mL
PGE2 (PGE2; PMA + PA (1 uM)): 486 ± 93 pg/mL
PGE2 (PGE2; PMA + PA (10 uM)): 233 ± 139 pg/mL
PGE2 (PGE2; PMA + PA (100 uM)): 117 ± 39 pg/mL
inflammatory response as measured by PGE2 production (in words) (PGE2; PMA-challenged, even at 0.1 μm (so in the source)): dramatically reduces the inflammatory response
activity at 10 µM (procollagen-I; Homo sapiens, Fibroblast, 10 μM, 24 hours, n = 3, read-out: Procollagen-I synthesis relative to vehicle treated control value of 100): 118 ± 8.6%
procollagen-I synthesis (in words) (procollagen-I; compared to the control): significantly upregulates
